IC50 data for four compounds are collected here from ChEMBL document CHEMBL1127112, “Synthesis and pharmacologic activity of hydroxyacetophenone-substituted benzophenone/xanthone leukotriene B4 receptor antagonists” (Bioorg Med Chem Lett, 1993).

The experiment is filed under the species Homo sapiens. In words: Compound was evaluated for inhibition of LTB4 induced chemotaxis of human neutrophils. Format: functional.

In turn, `CCc1cc(C(C)=O)c(O)cc1OCCCOc1ccc2c(=O)c3cc(C(=O)O)ccc3oc2c1CCC(=O)O` gave an IC50 of 0.32 µM. In the case of `COc1ccc(/C=C/CCCCOc2ccc(C(=O)c3cccc(C(=O)O)c3)cc2CCC(=O)O)cc1`, the IC50 is 6 µM.

Take `CCc1cc(C(C)=O)c(O)cc1OCCCOc1ccc(C(=O)c2cccc(C(=O)O)c2)cc1CCC(=O)O`: inhibition was half-maximal at 16 µM (IC50). Consider `CCc1cc(C(C)=O)c(O)cc1OCCCCCC(C)(C)c1nn[nH]n1` [LY-255283], for which the IC50 was 7.4 µM. Compared with the last compound, the IC50 is about 2.2-fold lower.

Usually IC50 stands for the concentration at which inhibition is half-maximal.
